Reference: patent US4139632A, “Psychotropic 2-trifluoromethyl-10-[3-(3-hydroxy-pyrrolidino)-propyl]-phenothiazine compounds” (Eisai Co., Ltd., priority 1975, dated 1979)

Assays:
Format in all cases: in vivo
Mouse [1] = assay: Anti-methanphethamine activity (neuroleptic activity); conditions: read-out: Anti-methanphethamine, 50% effective amount (ED50)
Experimental: (§1) Measurement of pharmacological activities are conducted in accordance with the procedures described in the following literatures: […]

Mouse [2] = assay: Anti-writhing effect (analgetic activity); conditions: read-out: Anti-writhing effect, 50% effective amount (ED50)
Experimental: (§2) Measurement of pharmacological activities are conducted in accordance with the procedures described in the following literatures:
Proc. Soc. […] Biol, & Med.,

Mouse [3] = assay: Inhibitory effect of spontaneous motor activity; conditions: read-out: Inhibitory effect of spontaneous motor activity, 50% effective amount (ED50)
Experimental: as §2
1) Svensson, T. H. et al

Mouse [4] = assay: Anti-tremorine activity (anti-Parkinson activity); conditions: for ED50: read-out: Anti-tremorine activity, 50% effective amount (ED50)
Experimental: as §1

Mouse [5] = assay: Acute toxicity LD50, oral administration; conditions: compared with chlorpromazine and fluphenazine

Compound | ED50 (Mouse [1]; Mus musculus, po) | ED50 (Mouse [2]; Mus musculus, po) | ED50 (Mouse [3]; Mus musculus, po) | ED50 (Mouse [4]; Mus musculus, po) | ED50 (Mouse [1]; mouse, oral administration) | acute toxicity (LD50) relative to chlorpromazine and fluphenazine (Mouse [5]) | ED50 (Mouse [2]; mouse, oral administration) | ED50 (Mouse [3]; mouse, oral administration) | central anticholinergic activity (Mouse [4]; concluded from table comparison) | ED50 (Mouse [4]; mouse, oral administration)
CN(C)CCCN1c2ccccc2Sc2ccc(Cl)cc21 [Chlorpromazine] | 5.6 mg/kg | 9.4 mg/kg | 13 mg/kg | 2.3 mg/kg |  |  |  |  |  | 
Cl.OC1CCN(CCCN2c3ccccc3Sc3ccc(C(F)(F)F)cc32)C1 (stereo not drawn) [Compound A, 2-trifluoromethyl-10-[3-(3-hydroxy-pyrrolidino)-propyl]-phenothiazine hydrochloride] |  |  |  |  | 0.9 mg/kg | far less than that of chlorpromazine and fluphenazine | 1 mg/kg | 3.3 mg/kg | has central anticholinergic activity | 3.6 mg/kg
OCCN1CCN(CCCN2c3ccccc3Sc3ccc(C(F)(F)F)cc32)CC1 [Fluphenazine] |  |  |  |  | 0.5 mg/kg |  | 2.5 to 10 mg/kg | 2.1 mg/kg |  | 12 mg/kg
Cl.FC(F)(F)c1ccc2c(c1)N(CCCN1CCCC1)c1ccccc1S2 [Known Compound a, 2-trifluoromethyl-10-(3-pyrrolidino-propyl)-phenothiazine hydrochloride] |  |  |  |  | 1.9 mg/kg |  | 4.1 mg/kg | 3.8 mg/kg |  | 4.3 mg/kg
